Converted amounts (≈) assume the structure as drawn. Where two headings read alike, the source gives them in different places.
Tests used:
Type in all cases: cell-based
[1] = system: Neisseria gonorrhoeae; test: Broth microdilution MIC testing (Example 1)
Method: (§1) In this study, to evaluate the spectrum of activity, cannabidiol (CBD) was profiled against Neisseria. Testing was conducted following guidelines recommended by the Clinical and Laboratory Standards Institute (CLSI, 1-4), using vancomycin, meropenem, levofloxacin, and gentamicin as comparators for testing aerobic bacteria.
(§2) Test agents were supplied by Micromyx. Stock solutions of all compounds were prepared on the first day of testing at 101× the highest test concentration using solvents recommended by CLSI. CBD was prepared fresh on each of testing.
(§3) The test organisms evaluated in this study consisted of clinical isolates from the Micromyx Repository, reference isolates from the American Type Culture Collection (ATCC; Manassas, Va.), isolates from the antibiotic resistance bank from the Centers for Disease Control and Prevention (CDC; Atlanta, Ga.), and isolates from the Network on Antimicrobial Resistance in Staphylococcus aureus (NARSA; BEI Resources, Manassas, Va.). Upon initial receipt at Micromyx, the organisms were sub-cultured onto an appropriate agar medium. Following incubation, colonies were harvested from these plates and cell suspensions prepared and frozen at −80° C. with a cryoprotectant.
(§4) Prior to testing, Neisseria was streaked onto Chocolate agar (BD; Lot No. 9228071) and incubated at 35° C. in 5% CO2 for 24 hr.
(§5) For Neisseria, a modified medium described by the ATCC as capable of supporting growth was used. This medium contains 15 g Oxoid Special Peptone, 1 g corn starch (Ward's Science; Rochester, N.Y.; Lot 39-3271), 5 g NaCl (VWR; 57897), 4 g K2HPO4 (Sigma; Lot SLBT7061), 1 g KH2PO4 (SLBC1921V), and 1% IsoVitaleX (BD; Lot 8323954) enrichment per 500 mL.
(§6) MIC values were determined using a broth microdilution procedure described by CLSI (1-4). Automated liquid handlers (Multidrop 384, Labsystems, Helsinki, Finland; Biomek 2000 and Biomek FX, Beckman Coulter, Fullerton, Calif.) were used to conduct serial dilutions and liquid transfers.
(§7) To prepare the drug mother plates, which would provide the serial drug dilutions for the replicate daughter plates, the wells of columns 2 through 12 of standard 96-well microdilution plates (Costar 3795) were filled with 150 μl of the designated diluent for each row of drug. The test article and comparator compounds (300 μl at 101× the highest concentration to be tested) were dispensed into the appropriate wells in column 1. The Biomek 2000 was then used to make 2-fold serial dilutions in the mother plates from column 1 through column 11. The wells of column 12 contained no drug and served as the organism growth control wells for the assay.
(§8) The daughter plates were loaded with 190 μL per well of the appropriate test medium for the tested organism using the Multidrop 384. The daughter plates were completed on the Biomek FX instrument which transferred 2 μL of drug solution from each well of a mother plate to the corresponding well of each daughter plate in a single step.
A standardized inoculum of each test organism was prepared per CLSI methods (1-4). The inoculum for each organism was dispensed into sterile reservoirs divided by length (Beckman Coulter), and the Biomek 2000 was used to inoculate the plates. Daughter plates were placed on the Biomek 2000 work surface in reverse orientation so that inoculation took place from low to high drug concentration. Plates were inoculated with 10 μL of the inoculum resulting in a final cell density of approximately 5×10^5 CFU/mL per well.
The plates for testing of aerobic organisms were stacked 3 to 4 high, covered with a sterile lid, and incubated at 35° C. and 5% CO2 for the time periods specified in CLSI (1-4). […] Following incubation, the microplates were removed from the incubator and viewed from the bottom using a plate viewer. […] The MIC was read and recorded as the lowest concentration of drug that inhibited visible growth of the organism.

[2] = system: Neisseria meningitidis; test: Broth microdilution MIC testing (Example 1)
Method: as §1, §2, §3, §4, §5, §6, §7, §8
A standardized inoculum of each test organism was prepared per CLSI methods (1-4). The inoculum for each organism was dispensed into sterile reservoirs divided by length (Beckman Coulter), and the Biomek 2000 was used to inoculate the plates. […]
The plates for testing of aerobic organisms were stacked 3 to 4 high, covered with a sterile lid, and incubated at 35° C. and 5% CO2 for the time periods specified in CLSI (1-4). […] The MIC was read and recorded as the lowest concentration of drug that inhibited visible growth of the organism.

[3] = system: Neisseria gonorrhoeae; test: Agar dilution MIC assay, 25 isolates (Example 3); settings: for MIC: Neisseria gonorrhoeae, agar dilution
Method: The MIC of Neisseria gonorrhoea was established using an agar dilution MIC assay.
Test drugs were provided by Micromyx. All stock solutions were allowed to stand for at least 1 hr prior to use to auto-sterilize. Leftover stock solutions of comparator drugs were aliquoted and stored at −80° C. Suppliers, catalog/lot numbers, solvents, stock concentrations and testing ranges were as follows.
Test organisms were reference strains from the American Type Culture Collection (ATCC; Manassas, Va.), isolates from WHO, isolates from the CDC antibiotic resistance bank, and clinical isolates from the Micromyx (MMX) repository. Upon receipt at Micromyx, the isolates were streaked under suitable conditions onto agar medium appropriate to each organism and were incubated for 24-48 hr at 35° C. Colonies harvested from these growth plates were resuspended in the appropriate medium containing a cryoprotectant. Aliquots of each suspension were then frozen at −80° C.
Prior to testing, the isolates were sub-cultured onto Chocolate agar (Becton Dickenson [BD]/BBL; Sparks, Md., Cat. No. 221267, Lot No. 9346275) and placed at 35° C. in a CO2 incubator for 24 hrs.
MIC values were determined using the agar dilution method (1, 2). All serial dilutions and liquid handling were performed by hand using sterile pipettes. […] Cannabidiol was prepared as a stock solution at 100× the final concentration in the appropriate solvent and diluted according to CLSI guidelines.
Each test agent was mixed with molten (50-55° C.) GC media agar supplemented with 1% IsoVitalex. […] All other test agents were added to the medium in a ratio of 0.2 mL 100× test agent to 19.8 mL agar. Once test agents were added to the agar in a sterile tube, they were mixed gently and then poured into a sterile 110×15 mm petri dish. Plates were allowed to solidify at room temperature and placed in a laminar air flow hood with the covers off to remove condensed moisture on the agar surface.
Next, each isolate was suspended to the equivalent of a 0.5 McFarland standard in saline using a Siemens Microscan turbidity meter and diluted 1:10. Each bacterial cell suspension was then transferred to wells in a stainless-steel replicator block. The prongs on the replicator deliver approximately 1-2 μl of inoculum to an agar surface. The resulting inoculum spots contained approximately 10^4 cells/spot.
Each agar plate containing either test compound or no drug (control) was stamped with the replicator. All plates were placed with the agar surface up to allow for the inoculum to soak into the agar. The plates were inverted and incubated at 35° C. for 24 hrs in a CO2 incubator and finally inspected for growth.

[4] = system: Staphylococcus aureus ATCC 29213; test: Broth microdilution MIC assay, quality control strain (Example 2); settings: ATCC29213, S. aureus ATCC 29213 (QC), CAMHB
Method: Following incubation, colonies were harvested from these plates and cell suspensions prepared and frozen at −80° C. with a cryoprotectant. Prior to testing, N. gonorrhoeae isolates were streaked onto Chocolate Agar [Becton Dickinson, (BD), Sparks, Md.; Lot No. 922807]; Staphylococcus aureus ATCC 29213 tested for quality control (QC) purposes was streaked onto Trypticase Soy Agar with 5% Sheep Blood (TSA II; BD; Lot No. 9219399).
Cation-adjusted Mueller Hinton broth (CAMHB; BD; Lot No. 9019592) was used for MIC testing of S. aureus ATCC 29213 for QC purposes.
MIC values were determined using a broth microdilution procedure described by CLSI (1, 2). Automated liquid handlers (Multidrop 384, Labsystems, Helsinki, Finland; Biomek 2000 and Biomek FX, Beckman Coulter, Fullerton Calif.) were used to conduct serial dilutions and liquid transfers.
as §7, with “articles” for “article”, “100×” for “101×”
as §8, with “step. Daughter plates for the testing of anaerobes were allowed to pre-reduce in the Bactron II anaerobe chamber for 2 hr prior to inoculation.” for “step.”
A standardized inoculum of each test organism was prepared per CLSI methods (1, 2). The inoculum for each organism was dispensed into sterile reservoirs divided by length (Beckman Coulter), and the Biomek 2000 was used to inoculate the plates. Daughter plates were placed on the Biomek 2000 work surface in reverse orientation so that inoculation took place from low to high drug concentration. Anaerobic organisms were inoculated by hand in the Bactron II anaerobic chamber. Bacterial plates were then inoculated with 10 μL of the inoculum resulting in a final cell density of approximately 5×10^5 CFU/mL.
Plates were stacked 3 to 4 high, covered with a lid on the top plate and placed in plastic bags. […] The MIC was read and recorded as the lowest concentration of drug that inhibited visible growth of the organism.

[5] = 25 isolates, agar dilution assay, MIC distribution
[6] = Neisseria gonorrhoeae, ATCC49226, N. gonorrhoeae MMX 0683 / ATCC 49226, broth microdilution, plate read at 40 hr, read-out: MIC
[7] = Neisseria gonorrhoeae, N. gonorrhoeae MMX 6746, broth microdilution, read-out: MIC
[8] = Neisseria gonorrhoeae, N. gonorrhoeae MMX 6757, broth microdilution, plate read at 40 hr, read-out: MIC
[9] = Neisseria meningitidis, ATCC13090, N. meningitidis MMX 0707 / ATCC 13090, broth microdilution, read-out: MIC

CN[C@H](CC(C)C)C(=O)N[C@H]1C(=O)N[C@@H](CC(N)=O)C(=O)N[C@H]2C(=O)N[C@H]3C(=O)N[C@H](C(=O)N[C@H](C(=O)O)c4cc(O)cc(O)c4-c4cc3ccc4O)[C@H](O)c3ccc(c(Cl)c3)Oc3cc2cc(c3O[C@@H]2O[C@H](CO)[C@@H](O)[C@H](O)[C@H]2O[C@H]2C[C@](C)(N)[C@H](O)[C@H](C)O2)Oc2ccc(cc2Cl)[C@H]1O [VAN, vancomycin]
MIC ([1]; Neisseria gonorrhoeae): 16 µg/mL (≈ 11 µM) | MIC ([1]; Neisseria gonorrhoeae, 40 h): 32 µg/mL (≈ 22.1 µM) | MIC ([1]; Neisseria gonorrhoeae, ATCC49226, 40 h): 8 µg/mL (≈ 5.52 µM) | MIC ([2]; Neisseria meningitidis, ATCC13090): > 32 µg/mL

O=C(O)c1cn(C2CC2)c2cc(N3CCNCC3)c(F)cc2c1=O [CIP, ciprofloxacin]
Number of isolates at MIC 0.015 μg mL^−1 [3, 5]: 3 | Number of isolates at MIC 0.03 μg mL^−1 [3, 5]: 0 | Number of isolates at MIC 0.06 μg mL^−1 [3, 5]: 0 | Number of isolates at MIC 0.12 μg mL^−1 [3, 5]: 1 | Number of isolates at MIC 0.25 μg mL^−1 [3, 5]: 0 | Number of isolates at MIC 0.5 μg mL^−1 [3, 5]: 0 | Number of isolates at MIC 1 μg mL^−1 [3, 5]: 0 | Number of isolates at MIC 4 μg mL^−1 [3, 5]: 2 | Number of isolates at MIC >8 μg mL^−1 [3, 5]: 11 | Number of isolates at MIC ≤0.004 μg mL^−1 [3, 5]: 6 | MIC ([3]; N. gonorrhoeae CDC 0177): 0.015 µg/mL (≈ 0.0453 µM) | MIC ([3]; N. gonorrhoeae CDC 0181): 0.015 µg/mL (≈ 0.0453 µM) | MIC ([3]; NCTC13478, N. gonorrhoeae NCTC 13478 (WHO G)): 0.12 µg/mL (≈ 0.362 µM) | MIC ([3]; NCTC13481, N. gonorrhoeae NCTC 13481 (WHO M)): 2 µg/mL (≈ 6.04 µM) | MIC ([3]; NCTC13483, N. gonorrhoeae NCTC 13483 (WHO O)): 0.015 µg/mL (≈ 0.0453 µM) | MIC [4]: 0.25 µg/mL (≈ 0.754 µM)

C[C@H]1COc2c(N3CCN(C)CC3)c(F)cc3c(=O)c(C(=O)O)cn1c23 [LVX, levofloxacin]
MIC [1, 6]: 0.002 µg/mL (≈ 0.00553 µM) | MIC [1, 7]: 4 µg/mL (≈ 11.1 µM) | MIC [1, 8]: 0.015 µg/mL (≈ 0.0415 µM) | MIC [2, 9]: 0.004 µg/mL (≈ 0.0111 µM)

C[C@@H](O)[C@H]1C(=O)N2C(C(=O)O)=C(S[C@@H]3CN[C@H](C(=O)N(C)C)C3)[C@H](C)[C@H]12 [MEM, meropenem]
MIC [1, 6]: < 0.03 µg/mL | MIC [1, 7]: 0.06 µg/mL (≈ 0.156 µM) | MIC [1, 8]: < 0.03 µg/mL | MIC [2, 9]: < 0.03 µg/mL

gentamicin
MIC ([1]; N. gonorrhoeae MMX 0683 / ATCC 49226, broth microdilution, plate read at 40 hr): 4 µg/mL | MIC ([1]; N. gonorrhoeae MMX 6746, broth microdilution): 16 µg/mL | MIC ([1]; N. gonorrhoeae MMX 6757, broth microdilution, plate read at 40 hr): 8 µg/mL | MIC ([2]; N. meningitidis MMX 0707 / ATCC 13090, broth microdilution): 8 µg/mL

From patent US20230015949A1, “NEISSERIA TREATMENT USING CANNABINOIDS” (priority 2019, published 2023)
